# Measurements as given in patent US8106092B2, “Treatment of solid cancers” (priority 2004, dated 2012).
# Tests used:
# B16 tumors [1] = assay: B16-specific antibody responses by ELISA after PEP005 treatment of B16 tumors; format: in vivo, C57BL/6 mice; conditions: as early as d11; exceeding untreated animals with large tumor burdens, p=0.045 at 1/100 dilution
# Method: FIG. 15 is a graphical representation showing antibody responses following PEP005 treatment of B16 tumors. B16 tumors growing on C57BL/6 mice were cured with PEP005 treatment after they had reached 30-60 mm^3, (one tumor per mouse) and B16-specific antibody titers were measured by standard ELISA on blood taken d11 post treatment initiation (n=6) (▪) or d135 post treatment initiation (n=5) (▴). Antibody titers for untreated animals whose tumors had reached 121.5±SD 20.1 (n=4) by d11 are also shown (X). Naïve mice (n=5) received no tumors (i).
# Anti-tumor antibodies are known to have anti-cancer activity. […] B16 cells (10^6) were injected s.c. (1 tumor/mouse) into the flanks of female, 6-10 week-old mice and when tumors had reached ≈30-60 mm^3 they were treated with PEP005 as above. On d11 and 135 serum was taken and analyzed by ELISA for antibodies specific for B16. A group of B16 bearing animals which were not treated with PEP005 and a naïve group were also included. B16 cells were sonicated in carbonate buffer 9pH=9) and absorbed onto Immuno Maxisorp 96 well plates (Nunc) overnight and dried. The plates were blocked with 5% v/v FBS, 0.01% v/v Tween in PBS for 1 hour at 37° C. […]
# B16-OVA tumors = assay: SIINFEKL-specific CD8+ T-cell induction after topical PEP005 treatment of B16-OVA (IFNγ ELISPOT); format: in vivo, C57/BL6 mice
# Method: B16 and B16 cells stably expressing ovalbumin (B16-OVA)were grown s.c. in C57BL/6 mice as described previously (Ogbourne et al, Cancer Res 64:2833-2839, 2004; Anraku et al, J Virol 76:3791-3799, 2002). Lung metastases were established as described (Zeh et al, J Immunol 162:989-994, 1999). Lewis lung-OVA (Nelson et al, J Immunol 166:5557-5566, 2001) were grown s.c. in C57BL/6 as described (Lenarczyk et al, Vaccine 22:963-974, 2004).
# Tumors were treated by topical or intratumoral (i.t.) injection (using a 26 gauge needle) of (i) PEP0005 dissolved in acetone and then RPMI 1640 (final concentration of acetone 4%), or (ii) PEP005 formulated in PEG400.
# Mouse splenocytes were analyzed by ex vivo IFNγ ELISPOT essentially as described previously (Le et al, Vaccine 19:4669-4675, 2001), but using MultiScreen-IP plates (Millipore) and 25 IU/ml of recombinant human IL-2 (Cetus).
# Following three topical applications of PEP005 to established s.c. B16-OVA tumors on C57/BL6 mice, the number of SIINFEKL [SEQ ID NO:2]-specific CD8^+ T-cell induced were measured using IFNγ ELISPOT. As controls, the SIINFEKL [SEQ ID NO:2] specific CM^+ T-cell induced following (i) PEP005 treatment without tumor, (ii) mock treatment of B16 tumors and (iii) naïve mice (no PEP005 or tumor), were also tested.
# B16 tumors [2] = assay: Example 4: i.t. PEP005 on RHS primary B16 tumor with or without DC+IL-2, growth of LHS secondary tumor; format: in vivo, C57BL/6 mice
# Text: It has previously been established that PEP005-mediated curing of primary tumors can lead to the reduction secondary tumors in a B16-OVA lung metastasis and a s.c. Lewis lung-OVA model. These studies were extended (i) using a model where the model antigen ovalbumin is absent, (ii) using a system where both primary and secondary tumors are established before treatment initiation and (iii) using DC therapy combined with PEP005-mediated curing of primaries, to determine whether the two treatments can improve the anti-cancer effect on the secondary tumors.
# […], three groups of C57BL/6 mice were inoculated with 1×10^5 B16 s.c. on the right hand side of the back (RHS) and 2×10^4 s.c. on the left hand side of the back (LHS). A fourth group (Group 4) received only 2×10^4 s.c. on the left hand side of the back (LHS). On d0. the groups were given the following treatments:
# PEP005 RHS: The larger RHS tumors were treated intra-tumorally with 25 μg PEP005 in 50 μl of 5% w/v DMSO in RPMI 1640 supplemented with HEPES 10 mM.
# PEP005 RHS+DC+IL-2: The large RHS tumors were treated as for Group 1 plus the animals received on d0 DC2.4 cells (i) activated with LPS (for 3 hr incubation at 37° C. using 1 μg/ml E. coli 055:B5, Sigma), (ii) sensitized with TRP-2 peptide, SVYDFFVWL [SEQ ID NO:1] (30 μg/ml 2 hr, 37° C.), (iii) irradiated (5000 rads), washed and then injected i.v. (4×10^6/mouse iv) on d0. The animals also received rhIL-2 at 5×10^4 IU given twice daily per mouse from d0 to d4 i.p.
# CONT TREAT RHS: Mock treatment group; the larger RHS tumors were treated intra-tumorally with 50 μl of 5% w/v DMSO in RPMI1640 supplemented with HEPES 10 mM.
# NO RHS: This group had no RHS tumor and received no treatment.
# Lewis lung-OVA tumors = assay: Lewis lung-OVA primary cure and secondary challenge repeated in Foxnl^nu mice; format: in vivo; conditions: PEP005-mediated cure of primary tumors
structure (smiles),measurement,setting,value
"C/C=C(/C)C(=O)O[C@H]1C(C)=C[C@]23C(=O)[C@@H](C=C(CO)[C@@H](O)[C@]12O)[C@H]1[C@@H](C[C@H]3C)C1(C)C [PEP005, ingenol-3-angelate]",B16-specific antibody responses (ELISA),B16 tumors [1],clearly detectable antibody responses
same,tumor bearing animals cured,B16-OVA tumors; B16-OVA tumors treated topically with PEP005,4/7
same,SIINFEKL-specific CD8+ T-cell responses (IFNγ ELISPOT),"B16-OVA tumors; mice receiving PEP005 without tumor, limit of detection five spots/10^6 splenocytes",no significant responses
same,SIINFEKL-specific CD8+ T-cell responses (IFNγ ELISPOT),"B16-OVA tumors; mice with B16-OVA tumors treated with three topical applications of PEP005 (cured mice, n=4), p=0.058 vs combined negative controls",some weak variable responses
same,tolerability of i.t. treatment,"B16 tumors [2]; 25 μg PEP005 in 50 μl of 5% w/v DMSO in RPMI 1640, i.t.",not well tolerated
same,RHS (primary) tumors successfully cured,B16 tumors [2]; i.t. 25 μg PEP005 on d0,5/6
same,mice dying shortly after i.t. treatment,"B16 tumors [2]; in each of Group 1 and 2 (n=7 each), PEP005 using DMSO",one
same,survival (deaths due to growth of LHS tumor) vs NO RHS group,"B16 tumors [2]; mouse, in vivo",behaved essentially identically
same,growth of LHS (secondary) tumor d5 to d11 vs NO RHS,B16 tumors [2]; p=0.042,slower
same,protection against secondary challenge,Lewis lung-OVA tumors,no protective effect
